Measurements reported in patent US20170320848A1, “COMPOUNDS FOR USE IN ANTHELMINTHIC TREATMENT” (Bayer Animal Health GMBH, priority 2014, published 2017).

Tested on: Cooperia curticei
Assay: Cooperia curticei assay (COOPCU), larval mortality
Type: cell-based
Conditions: Cooperia curticei, 120 h; application rate 20 ppm, after 5 days; read-out: activity (percentage of larval mortality)
Method: Cooperia Curticei—Assay (COOPCU)
Solvent: dimethyl sulfoxide
To produce a suitable preparation, 10 mg of active compound are dissolved in 0.5 ml solvent, and the concentrate is diluted with “Ringer's solution” to the desired concentration.
Approximately 40 nematode larvae (Cooperia curticei) are transferred into a test tube containing the compound solution.
After 5 days percentage of larval mortality is recorded. 100% efficacy means all larvae are killed; 0% efficacy means no larvae are killed.

SMILES | mortality at 20 ppm
COc1ccc(-c2ccc(C(F)(F)CNC(=O)c3ccccc3C(F)(F)F)c(F)c2)cc1 [Example 6] | 80%
CN(C)c1ccc(-c2ccc(C(F)(F)CNC(=O)c3ccccc3C(F)(F)F)c(C(F)(F)F)c2)cc1 [Example 10] | 80%
CN(C)c1ccc(-c2ccc(C(F)(F)CNC(=O)c3ccccc3C(F)(F)F)c(Cl)c2)cc1 [Example 28] | 80%
CNc1ccc(-c2ccc(C(F)(F)CNC(=O)c3ccccc3C(F)(F)F)c(Cl)c2)cc1 [Example 29] | 80%

Same assay, conditions: application rate 20 ppm, after 5 days

SMILES | activity (percentage of larval mortality)
COc1cc(-c2ccc(C#N)cc2)ccc1C(F)(F)CNC(=O)c1ccccc1C(F)(F)F [Example 51] | 90%
N#Cc1cc(-c2ccc(F)cc2)ccc1C(F)(F)CNC(=O)c1ccccc1C(F)(F)F [Example 74] | 90%
O=C(NCC(F)(F)c1ccc(-c2ccc(N3CCCC3)cc2)cc1Cl)c1ccccc1C(F)(F)F [Example 78] | 90%
N#Cc1cc(-c2cccc(C(F)F)c2)ccc1C(F)(F)CNC(=O)c1ccccc1C(F)(F)F [Example 79] | 80%
COc1cc(-c2ccc(C(F)(F)F)cc2)ccc1C(F)(F)CNC(=O)c1ccccc1C(F)(F)F [Example 87] | 90%
COc1cc(-c2ccc(C(F)F)cc2)ccc1C(F)(F)CNC(=O)c1ccccc1C(F)(F)F [Example 91] | 80%

Tested on: not listed separately
Assay: Measurement of LogP values by HPLC on reversed phase columns (EEC directive 79/831 Annex V.A8)
Type: physicochemical
Conditions: acidic range, 0.1% formic acid in water and acetonitrile as eluent

SMILES | logP (HCOOH)[a]
O=C(NCC(F)(F)c1ccc(-c2ccc(OC(F)(F)F)cc2)cc1Cl)c1ccccc1C(F)(F)F [Example 39] | 4.67
O=C(NCC(F)(F)c1ccc(-c2ccc(C(F)F)cc2)cc1Cl)c1ccccc1C(F)(F)F [Example 40] | 3.99
O=C(NCC(F)(F)c1ccc(-c2ccc(C(F)(F)F)cc2)cc1Cl)c1ccccc1C(F)(F)F [Example 41] | 4.56
O=C(NCC(F)(F)c1ccc(-c2cccc(OC(F)(F)F)c2)cc1Cl)c1ccccc1C(F)(F)F [Example 42] | 4.61
O=C(NCC(F)(F)c1ccc(-c2cccc(C(F)F)c2)cc1Cl)c1ccccc1C(F)(F)F [Example 43] | 4.03
O=C(NCC(F)(F)c1ccc(-c2ccc(S(=O)(=O)C(F)(F)F)cc2)cc1Cl)c1ccccc1C(F)(F)F [Example 45] | 4.32
N#Cc1ccc(-c2cc(F)c(C(F)(F)CNC(=O)c3ccccc3C(F)(F)F)c(F)c2)cc1 [Example 46] | 3.53
O=C(NCC(F)(F)c1c(F)cc(-c2ccc(SC(F)(F)F)cc2)cc1F)c1ccccc1C(F)(F)F [Example 47] | 4.82
O=C(NCC(F)(F)c1c(F)cc(-c2ccc(OC(F)(F)F)cc2)cc1F)c1ccccc1C(F)(F)F [Example 48] | 4.56
COc1cc(-c2ccc(C#N)cc2)ccc1C(F)(F)CNC(=O)c1ccccc1C(F)(F)F [Example 51] | 3.43
O=C(NCC(F)(F)c1ccc(-c2ccc([S+]([O-])C(F)(F)F)cc2)cc1Cl)c1ccccc1C(F)(F)F (centres unmarked) [Example 56] | 3.87
O=C(NCC(F)(F)c1ccc(-c2ccc(F)cc2)cc1Cl)c1ccccc1I [Example 57] | 4.17
O=C(NCC(F)(F)c1ccc(-c2ccc(F)cc2)cc1Cl)c1ccccc1Br [Example 58] | 4.05
O=C(NCC(F)(F)c1ccc(-c2ccc(F)cc2)cc1Cl)c1ccccc1Cl [Example 59] | 4.0
O=C(NCC(F)(F)c1ccc(-c2cc(F)c(OC(F)F)c(F)c2)cc1Cl)c1ccccc1C(F)(F)F [Example 66] | 4.20
O=C(NCC(F)(F)c1ccc(-c2cccc(C(F)(F)F)c2)cc1Cl)c1ccccc1C(F)(F)F [Example 67] | 4.55
O=C(NCC(F)(F)c1ccc(-c2ccc3c(c2)OC(F)(F)O3)cc1Cl)c1ccccc1C(F)(F)F [Example 71] | 4.57
N#Cc1cc(-c2ccc(OC(F)(F)F)cc2)ccc1C(F)(F)CNC(=O)c1ccccc1C(F)(F)F [Example 72] | 4.23
N#Cc1ccc(-c2ccc(C(F)(F)CNC(=O)c3ccccc3C(F)(F)F)c(C#N)c2)cc1 [Example 73] | 1.33
N#Cc1cc(-c2ccc(F)cc2)ccc1C(F)(F)CNC(=O)c1ccccc1C(F)(F)F [Example 74] | 3.63
O=C(NCC(F)(F)c1ccc(-c2ccc(N3CCOCC3)cc2)cc1Cl)c1ccccc1C(F)(F)F [Example 75] | 3.83
Cc1cc(-c2ccc(OC(F)(F)F)cc2)ccc1C(F)(F)CNC(=O)c1ccccc1C(F)(F)F [Example 76] | 4.68
COc1cc(-c2ccc(OC(F)(F)F)cc2)ccc1C(F)(F)CNC(=O)c1ccccc1C(F)(F)F [Example 77] | 4.42
O=C(NCC(F)(F)c1ccc(-c2ccc(N3CCCC3)cc2)cc1Cl)c1ccccc1C(F)(F)F [Example 78] | 5.08
N#Cc1cc(-c2cccc(C(F)F)c2)ccc1C(F)(F)CNC(=O)c1ccccc1C(F)(F)F [Example 79] | 3.59

SMILES | logP (HCOOH)[a]
Cc1cc(-c2ccc(C(F)F)cc2)ccc1C(F)(F)CNC(=O)c1ccccc1C(F)(F)F [Example 80] | 4.06
O=C(NCC(F)(F)c1c(F)cc(-c2ccc(C(F)F)cc2)cc1F)c1ccccc1C(F)(F)F [Example 81] | 3.9
O=C(NCC(F)(F)c1c(F)cc(-c2cccc(C(F)F)c2)cc1F)c1ccccc1C(F)(F)F [Example 82] | 3.83
N#Cc1cc(-c2ccc(SC(F)(F)F)cc2)ccc1C(F)(F)CNC(=O)c1ccccc1C(F)(F)F [Example 83] | 4.5
CN1CCN(c2ccc(-c3ccc(C(F)(F)CNC(=O)c4ccccc4C(F)(F)F)c(Cl)c3)cc2)CC1 [Example 84] | 1.84
N#Cc1cc(-c2ccc(C(F)(F)F)cc2)ccc1C(F)(F)CNC(=O)c1ccccc1C(F)(F)F [Example 85] | 4.07
O=C(NCC(F)(F)c1c(F)cc(-c2ccc(C(F)(F)F)cc2)cc1F)c1ccccc1C(F)(F)F [Example 86] | 4.38
COc1cc(-c2ccc(C(F)(F)F)cc2)ccc1C(F)(F)CNC(=O)c1ccccc1C(F)(F)F [Example 87] | 4.33
Cc1cc(-c2ccc(C(F)(F)F)cc2)ccc1C(F)(F)CNC(=O)c1ccccc1C(F)(F)F [Example 88] | 4.62
N#Cc1cc(-c2ccc(C(F)F)cc2)ccc1C(F)(F)CNC(=O)c1ccccc1C(F)(F)F [Example 89] | 3.59
Cc1cc(-c2cccc(C(F)F)c2)ccc1C(F)(F)CNC(=O)c1ccccc1C(F)(F)F [Example 90] | 4.07
COc1cc(-c2ccc(C(F)F)cc2)ccc1C(F)(F)CNC(=O)c1ccccc1C(F)(F)F [Example 91] | 3.81
COc1cc(-c2cccc(C(F)F)c2)ccc1C(F)(F)CNC(=O)c1ccccc1C(F)(F)F [Example 92] | 3.81
N#Cc1ccc(-c2ccc(C(F)(F)CNC(=O)c3ccccc3C(F)(F)F)c(Cl)c2)c(F)c1 [Example 93] | 3.76
N#Cc1cc(-c2ccc(C(F)(F)CNC(=O)c3ccccc3C(F)(F)F)c(Cl)c2)ccc1F [Example 96] | 3.81
CC(=O)N1CCN(c2ccc(-c3ccc(C(F)(F)CNC(=O)c4ccccc4C(F)(F)F)c(Cl)c3)cc2)CC1 [Example 104] | 3.17
O=C(NCC(F)(F)c1ccc(-c2ccc(OC(F)(F)F)c(F)c2)cc1Cl)c1ccccc1C(F)(F)F [Example 106] | 4.8
N#Cc1cc(-c2cc(F)c(F)c(F)c2)ccc1C(F)(F)CNC(=O)c1ccccc1C(F)(F)F [Example 107] | 3.89
O=C(NCC(F)(F)c1ccc(-c2cc(F)c(Cl)c(F)c2)cc1Cl)c1ccccc1C(F)(F)F [Example 110] | 4.77
O=C(NCC(F)(F)c1ccc(-c2cc(F)c(F)c(F)c2)cc1Cl)c1nccnc1C(F)(F)F [Example 111] | 4.05
O=C(NCC(F)(F)c1ccc(-c2ccc(N3CCOCC3)c(F)c2)cc1Cl)c1ccccc1C(F)(F)F [Example 113] | 4.05
O=C(NCC(F)(F)c1ccc(-c2cc(F)c(F)c(F)c2)cc1Cl)c1ccccc1I [Example 114] | 4.34
O=C(NCC(F)(F)c1ccc(-c2cc(F)c(F)c(F)c2)cc1Cl)c1ccccc1Br [Example 116] | 4.28
COc1cc(-c2cc(F)c(F)c(F)c2)ccc1C(F)(F)CNC(=O)c1ccccc1C(F)(F)F [Example 118] | 4.23
Cc1cc(-c2cc(Cl)c(F)c(Cl)c2)ccc1C(F)(F)CNC(=O)c1ccccc1C(F)(F)F [Example 128] | 5.08

Same assay, conditions: reversed phase HPLC columns, acidic range, 0.1% formic acid in water and acetonitrile as eluent, read-out: logP (HCOOH)[a]

chromatographic logP | SMILES
2.99 | CS(=O)(=O)c1ccc(-c2ccc(C(F)(F)CNC(=O)c3ccccc3C(F)(F)F)c(Cl)c2)cc1 [Example 24]
2.93 | CC(=O)Nc1ccc(-c2ccc(C(F)(F)CNC(=O)c3ccccc3C(F)(F)F)c(Cl)c2)cc1 [Example 30]
1.35 | NCC(F)(F)c1ccc(-c2ccc(F)cc2)cc1Cl [Example VII-1, 2-[2-chloro-4-(4-fluorophenyl)phenyl]-2,2-difluoro-ethanamine]

SMILES | chromatographic logP
CN(C)c1ccc(-c2ccc(C(F)(F)CNC(=O)c3ccccc3C(F)(F)F)c(Cl)c2)cc1 [Example 28] | 4.28
CNc1ccc(-c2ccc(C(F)(F)CNC(=O)c3ccccc3C(F)(F)F)c(Cl)c2)cc1 [Example 29] | 3.59

Same assay, conditions: reversed phase HPLC columns, neutral range, 0.001 molar ammonium acetate solution in water and acetonitrile as eluent, read-out: LogP[b]

chromatographic logP | SMILES
3.1 | NCC(F)(F)c1ccc(-c2ccc(F)cc2)cc1Cl [Example VII-1, 2-[2-chloro-4-(4-fluorophenyl)phenyl]-2,2-difluoro-ethanamine]

Tested on: Meloidogyne incognita
Assay: Meloidogyne incognita assay (MELGIN), gall formation on salad seedlings
Type: in vivo
Conditions: application rate 20 ppm, after 14 days
Method: Meloidogyne Incognita—Assay (MELGIN)
Solvent: 125.0 parts by weight of acetone
To produce a suitable preparation, 1 part by weight of active compound is mixed with the stated amount of solvent, and the concentrate is diluted with water to the desired concentration.
Vessels are filled with sand, a solution of the active ingredient, a suspension containing eggs and larvae of the southern root-knot nematode (Meloidogyne incognita) and salad seeds. The salad seeds germinate and the seedlings grow. Galls develop in the roots.
After 14 days the nematicidal activity is determined on the basis of the percentage of gall formation. 100% means no galls were found and 0% means the number of galls found on the roots of the treated plants was equal to that in untreated control plants.

SMILES | nematicidal activity (percentage of gall formation)
O=C(NCC(F)(F)c1ccc(-c2cccc(C(F)F)c2)cc1Cl)c1ccccc1C(F)(F)F [Example 43] | 100%
O=C(NCC(F)(F)c1c(F)cc(-c2ccc(SC(F)(F)F)cc2)cc1F)c1ccccc1C(F)(F)F [Example 47] | 90%
O=C(NCC(F)(F)c1ccc(-c2ccc(F)cc2)cc1C(F)(F)F)c1nccnc1C(F)(F)F [Example 52] | 100%
O=C(NCC(F)(F)c1ccc(-c2ccc(Cl)cc2)cc1C(F)(F)F)c1nccnc1C(F)(F)F [Example 53] | 100%
O=C(NCC(F)(F)c1ccc(-c2cc(F)cc(F)c2)cc1F)c1ccccc1C(F)(F)F [Example 101] | 100%
